Experimental findings from patent publication US4318898A, “Technetium-99m-labelled (2,4,5-trimethylacetanilido)-iminodiacetate for liver function diagnosis, chloroacetric acid (2,4,5-trimethylanilide), (2,4,5-trimethylacetanilido)-iminodiacetate, and process for their preparation” (Hoechst Aktiengesellschaft, priority 1978, dated 1982) are described below.

Series [1] is described as follows: Gamma-camera observation of activity distribution over time in rabbit after injection into the ear vein. Format: in vivo. The settings on record: for livermax (time of maximal liver activity after the injection) / livermax/2 (half-life of the activity in the liver, outside of the gallbladder): rabbit, 0.5 mCi, ear vein, Tc-99m labelled. On the procedure: (1) 0.5 mCi of the labelled diagnostic agent ia administered to a rabbit by injection into the ear vein, and the distribution of the activity is observed during the passage of time by means of a gamma-camera connected with a data processing system. The progress of the activity in defined organs is thus observed. The following parameters are determined:
1. livermax =time of maximal liver activity after the injection
2. livermax/2 =half-life of the activity in the liver (outside of the gallbladder).
1.8 g (2,4,5-trimethylacetanilido)-iminodiacetic acid is dissolved in 20 ml of 0.5 N sodium hydroxide solution and 36 mg of SnCl2.2H2 O (dissolved in 6 ml of 0.1 N hydrochloric acid) are added. The batch is stirred for 5 minutes, the pH is adjusted to 6 by means of hydrochloric acid, the batch is brought to 60 ml and divided into 1 ml portions. 10 mCi of Tc-99m pertechnetate in 4 ml of physiological saline solution are added to such a portion. […] All operations were carried out under a protective N2 gas atmosphere.

Series [2] can be described thus: Distribution of radioactivity in the organs of rats after injection into the thigh vein. The settings on record: for radioactivity in intestines / radioactivity in kidneys / radioactivity in liver: rat, 30 μCi, thigh vein. Format: in vivo, rat. On the procedure:
2. 30 μCi each of the labelled diagnostic agent are administered to groups of 12 rats each by injection into the thigh vein. Subsequently, 3 animals each are killed after 5, 10, 20 and 30 minutes, and the distribution of radioactivity in the organs is determined.
After stirring for 5 minutes, the pH is adjusted to 6 by means of hydrochloric acid, the batch is brought to 233 ml, divided into 1 ml portions in beaded rim vials, and frozen with liquid nitrogen. Subsequently, the product is lyophilized, the vials are filled with nitrogen and closed. After a storage time of 60 days, 0.3 mCi to Tc-99m pertechnetate in 10 ml of physiological saline solution is injected into the closed vials. After a reaction time of 20 minutes, 0.5 ml each of the diagnostic agent so obtained is administered intravenously to rats (typical test results are indicated in Table 2).

The subject of the next series is rats. Kind of series: Toxicity (dosis tolerata maxima, LD50) in rats. Format: in vivo.
Another series has as its system mice. Kind of series: Toxicity (dosis tolerata maxima, LD50) in mice. In kind it is in vivo.
Where [3] appears, read: compared to the hitherto known products.

Turning to `Cc1cc(C)c(NC(=O)CN(CC(=O)O)CC(=O)O)c(C)c1` [2,4,6-trimethyl-, (2,4,6-trimethylacetanilido)iminodiacetate], in series [1], the “livermax (time of maximal liver activity after the injection)” value turned out to be 4.2 min and the “livermax/2 (half-life of the activity in the liver, outside of the gallbladder)” value came out at 10.0 min. Also, in series [2] (5 minutes), the radioactivity in intestines worked out at 57.0%, the radioactivity in kidneys came out at 3.6% and the radioactivity in liver stood at 23.5%. In series [2] (10 minutes), the radioactivity in intestines is 66.0%, the radioactivity in kidneys stood at 3.8% and the radioactivity in liver turned out to be 12.1%. In addition, in series [2] (20 minutes), the radioactivity in intestines turned out to be 79.2%, the radioactivity in kidneys was 3.8% and the radioactivity in liver is 2.9%. In series [2] (30 minutes), the radioactivity in intestines came to 81.0%, the radioactivity in kidneys was determined as 3.3% and the radioactivity in liver is 1.6%.

In the case of `CC(C)c1cccc(C(C)C)c1NC(=O)CN(CC(=O)O)CC(=O)O` [2,6-diisopropyl-, (2,6-diisopropylacetanilido)-iminodiacetate], in series [1], the “livermax (time of maximal liver activity after the injection)” value came to 4.6 min and the “livermax/2 (half-life of the activity in the liver, outside of the gallbladder)” value was 15.3 min. Also, in series [2] (5 minutes), the radioactivity in intestines is listed as 60.9%, the radioactivity in kidneys is on record as 4.4% and the radioactivity in liver was determined as 10.0%. In addition, in series [2] (10 minutes), the radioactivity in intestines came out at 65.3%, the radioactivity in kidneys came to 4.4% and the radioactivity in liver was 7.0%. Further, in series [2] (20 minutes), the radioactivity in intestines is given as 71.9%, the radioactivity in kidneys stood at 4.4% and the radioactivity in liver is 4.4%. Moreover, in series [2] (30 minutes), the radioactivity in intestines is recorded as 72.2%, the radioactivity in kidneys stood at 3.8% and the radioactivity in liver came to 4.4%.

Consider `Cc1cc(C)c(NC(=O)CN(CC(=O)O)CC(=O)O)cc1C` [TMIDA, (2,4,5-trimethylacetanilido)-iminodiacetate], for which, in series [1] (setting [3]), the “passage through the liver” value was “more rapid passage through the liver”. In series [1], the “livermax (time of maximal liver activity after the injection)” value was determined as 2.6 min and the “livermax/2 (half-life of the activity in the liver, outside of the gallbladder)” value came out at 7.7 min. In the series on rats, the LD50 was 255 mg per kg of test animal and the dosis tolerata maxima was 189 mg/kg of body weight. In addition, in series [2] (setting [3]), the “activity concentration in the kidney” value was “decreased activity concentration in the kidney”. In series [2] (5 minutes), the radioactivity in intestines was determined as 56.8%, the radioactivity in kidneys was 3.3% and the radioactivity in liver amounted to 19.1%. In series [2] (10 minutes), the radioactivity in intestines is 68.8%, the radioactivity in kidneys was 3.1% and the radioactivity in liver came to 9.6%. In series [2] (20 minutes), the radioactivity in intestines is given as 81.1%, the radioactivity in kidneys was 2.5% and the radioactivity in liver is on record as 2.4%. In series [2] (30 minutes), the radioactivity in intestines came to 82.0%, the radioactivity in kidneys was found to be 2.1% and the radioactivity in liver was 1.2%. Further, in the series on mice, the LD50 was 246 mg per kg of test animal and the dosis tolerata maxima is 189 mg/kg of body weight.

Consider “^99m Tc-(2,6-diethylacetanilido)-iminodiacetate [EHIDA]”, for which, in series [1], the “livermax (time of maximal liver activity after the injection)” value came to 6.8 min and the “livermax/2 (half-life of the activity in the liver, outside of the gallbladder)” value stood at 15.7 min. Also, in series [2] (5 minutes), the radioactivity in intestines was 71.2%, the radioactivity in kidneys is given as 4.3% and the radioactivity in liver amounted to 6.9%. Moreover, in series [2] (10 minutes), the radioactivity in intestines is listed as 79.9%, the radioactivity in kidneys is reported as 4.2% and the radioactivity in liver came to 3.4%. Further, in series [2] (20 minutes), the radioactivity in intestines was 81.7%, the radioactivity in kidneys was 3.6% and the radioactivity in liver came to 1.6%. In series [2] (30 minutes), the radioactivity in intestines turned out to be 81.8%, the radioactivity in kidneys is reported as 3.4% and the radioactivity in liver is recorded as 1.5%.

Take “^99m Tc-(2,6-dimethylacetanilido)-iminodiacetate [HIDA]”: in series [1], the “livermax (time of maximal liver activity after the injection)” value amounted to 5.7 min and the “livermax/2 (half-life of the activity in the liver, outside of the gallbladder)” value was 8.2 min. Further, in series [2] (5 minutes), the radioactivity in intestines came out at 43.2%, the radioactivity in kidneys came out at 7.4% and the radioactivity in liver came out at 21.7%. In series [2] (10 minutes), the radioactivity in intestines is given as 65.9%, the radioactivity in kidneys is 7.4% and the radioactivity in liver stood at 9.6%. In series [2] (20 minutes), the radioactivity in intestines is reported as 80.8%, the radioactivity in kidneys was determined as 5.8% and the radioactivity in liver is 2.2%. In series [2] (30 minutes), the radioactivity in intestines is on record as 79.7%, the radioactivity in kidneys was 4.9% and the radioactivity in liver is on record as 1.0%.
